Assay results taken from patent US20250098679A1, “HERBICIDAL PYRIDONE DERIVATIVES” (SYNGENTA CROP PROTECTION AG, priority 2021, published 2025).

How the values were obtained:
Assay type in all cases: in vivo
Conditions in all cases: evaluated after 13 days
[1] = test system: Amaranthus palmeri (AMAPA); test: Post-emergence Test, Amaranthus palmeri (AMAPA); parameters: key: 5=81-100%, 4=61-80%, 3=41-60%, 2=21-40%, 1=0-20% damage
Description: (§1) Seeds of a variety of test species are sown in standard soil in pots (Setaria faberi (SETFA), Echinochloa crus-galli (ECHCG), Zea mays (ZEAMX), Ipomoea hederacea (IPOHE), Amaranthus palmeri (AMAPA), Amaranthus retoflexus (AMARE)). After 8 days cultivation under controlled conditions in a glasshouse (at 24° C./16° C., day/night; 14 hours light; 65% humidity), the plants are sprayed with an aqueous spray solution derived from the formulation of the technical active ingredient in acetone/water (50:50) solution containing 0.5% Tween 20 (polyoxyethelyene sorbitan monolaurate, CAS RN 9005-64-5). Compounds are applied at 1000 g/ha unless otherwise stated. The test plants are then grown in a glasshouse under controlled conditions in a glasshouse (at 24° C./16° C., day/night; 14 hours light; 65% humidity) and watered twice daily. After 13 days the test is evaluated for the percentage damage caused to the plant. The biological activities are shown in the following table on a five-point scale (5=81-100%; 4=61-80%; 3=41-60%; 2=21-40%; 1=0-20%; -=not tested).

[2] = test system: Amaranthus retoflexus (AMARE); test: Post-emergence Test, Amaranthus retoflexus (AMARE); parameters: key to percentage damage caused to the plant, AMARE (five-point scale): 5=81-100%, 4=61-80%, 3=41-60%, 2=21-40%, 1=0-20% damage
Description: as §1

[3] = test system: Echinochloa crus-galli (ECHCG); test: Post-emergence Test, Echinochloa crus-galli (ECHCG); parameters: key to percentage damage caused to the plant, ECHCG (five-point scale): 5=81-100%, 4=61-80%, 3=41-60%, 2=21-40%, 1=0-20% damage
Description: as §1

[4] = test system: Ipomoea hederacea (IPOHE); test: Post-emergence Test, Ipomoea hederacea (IPOHE); parameters: key to percentage damage caused to the plant, IPOHE (five-point scale): 5=81-100%, 4=61-80%, 3=41-60%, 2=21-40%, 1=0-20% damage
Description: as §1

Zea mays (ZEAMX) = test: Post-emergence Test, Zea mays (ZEAMX); parameters: key to percentage damage caused to the plant, ZEAMX (five-point scale): 5=81-100%, 4=61-80%, 3=41-60%, 2=21-40%, 1=0-20% damage
Description: as §1

Setaria faberi (SETFA) = test: Post-emergence Test, Setaria faberi (SETFA); parameters: key to percentage damage caused to the plant, SETFA (five-point scale): 5=81-100%, 4=61-80%, 3=41-60%, 2=21-40%, 1=0-20% damage
Description: as §1

Row | Compound | percentage damage caused to the plant, AMAPA (five-point scale) ([1]; 1000 g/ha) | percentage damage caused to the plant, AMARE (five-point scale) ([2]; 1000 g/ha) | percentage damage caused to the plant, ECHCG (five-point scale) ([3]; 1000 g/ha) | percentage damage caused to the plant, IPOHE (five-point scale) ([4]; 1000 g/ha) | percentage damage caused to the plant, ZEAMX (five-point scale) (Zea mays (ZEAMX); 1000 g/ha) | percentage damage caused to the plant, SETFA (five-point scale) (Setaria faberi (SETFA); 1000 g/ha) | percentage damage caused to the plant, AMAPA (five-point scale) ([1]; 250 g/Ha) | percentage damage caused to the plant, AMARE (five-point scale) ([2]; 250 g/Ha) | percentage damage caused to the plant, ECHCG (five-point scale) ([3]; 250 g/Ha) | percentage damage caused to the plant, IPOHE (five-point scale) ([4]; 250 g/Ha) | percentage damage caused to the plant, ZEAMX (five-point scale) (Zea mays (ZEAMX); 250 g/Ha) | percentage damage caused to the plant, SETFA (five-point scale) (Setaria faberi (SETFA); 250 g/Ha)
1 | CCOC(=O)c1c(-c2ccc(Cl)c(Cl)c2)n(CC)c(Cn2nccn2)cc1=O [Compound 58, ethyl 2-(3,4-dichlorophenyl)-1-ethyl-4-oxo-6-(triazol-2-ylmethyl)pyridine-3-carboxylate] | 0 | 1 (1=0-20%) | 1 (1=0-20%) | 0 | 0 | 1 (1=0-20%) |  |  |  |  |  | 
2 | CCOC(=O)c1c(-c2ccc(Cl)c(Cl)c2)n(CC)c(Cn2cncn2)cc1=O [Compound 60, ethyl 2-(3,4-dichlorophenyl)-1-ethyl-4-oxo-6-(1,2,4-triazol-1-ylmethyl)pyridine-3-carboxylate] | 0 | 1 (1=0-20%) | 2 (2=21-40%) | 1 (1=0-20%) | 0 | 1 (1=0-20%) |  |  |  |  |  | 
3 | CCOC(=O)c1c(-c2ccc(Cl)c(Cl)c2)n(CC)c(Cn2nccc2Cl)cc1=O [Compound 67, ethyl 6-[(5-chloropyrazolo-1-yl)methyl]-2-(3,4-dichlorophenyl)-1-ethyl-4-oxo-pyridine-3-carboxylate] |  |  |  |  |  |  | 1 (1=0-20%) | 1 (1=0-20%) | 0 | 0 | 0 | 0
4 | CCOC(=O)c1c(-c2ccc(Cl)c(Cl)c2)n(CC)c(Cn2cnc(Cl)c2Cl)cc1=O [Compound 68, ethyl 6-[(4,5-dichloroimidazol-1-yl)methyl]-2-(3,4-dichlorophenyl)-1-ethyl-4-oxo-pyridine-3-carboxylate] | 1 (1=0-20%) | 1 (1=0-20%) | 1 (1=0-20%) | 1 (1=0-20%) | 0 | 1 (1=0-20%) | 1 (1=0-20%) | 1 (1=0-20%) | 0 | 1 (1=0-20%) | 1 (1=0-20%) | 1 (1=0-20%)
5 | CCn1c(Cn2ncc([N+](=O)[O-])c2C)cc(=O)c(C(=O)O)c1-c1ccc(Cl)c(Cl)c1 [Compound 69, 2-(3,4-dichlorophenyl)-1-ethyl-6-[(5-methyl-4-nitro-pyrazol-1-yl)methyl]-4-oxo-pyridine-3-carboxylic acid] | 1 (1=0-20%) | 1 (1=0-20%) | 1 (1=0-20%) | 1 (1=0-20%) | 2 (2=21-40%) | 3 (3=41-60%) |  |  |  |  |  | 
6 | CCc1ncnn1Cc1cc(=O)c(C(=O)O)c(-c2ccc(Cl)c(Cl)c2)n1CC [Compound 70, 2-(3,4-dichlorophenyl)-1-ethyl-6-[(5-ethyl-1,2,4-triazol-1-yl)methyl]-4-oxo-pyridine-3-carboxylic acid] | 1 (1=0-20%) | 1 (1=0-20%) | 1 (1=0-20%) | 1 (1=0-20%) | 0 | 2 (2=21-40%) |  |  |  |  |  | 
7 | CCn1c(Cn2cnc(Cl)c2)cc(=O)c(C(=O)O)c1-c1ccc(Cl)c(Cl)c1 [Compound 74, 6-[(4-chloroimidazol-1-yl)methyl]-2-(3,4-dichlorophenyl)-1-ethyl-4-oxo-pyridine-3-carboxylic acid] | 0 | 0 | 0 | 0 | 1 (1=0-20%) | 0 |  |  |  |  |  | 
8 | CCn1c(Cn2cnc(C(=O)OC)c2)cc(=O)c(C(=O)O)c1-c1ccc(Cl)c(Cl)c1 [Compound 76, 2-(3,4-dichlorophenyl)-1-ethyl-6-[(4-methoxycarbonyl-imidazol-1-yl)methyl]-4-oxo-pyridine-3-carboxylic acid] | 1 (1=0-20%) | 1 (1=0-20%) | 0 | 0 | 1 (1=0-20%) | 1 (1=0-20%) |  |  |  |  |  | 
9 | CCn1c(Cn2cnc(F)c2)cc(=O)c(C(=O)O)c1-c1ccc(Cl)c(Cl)c1 [Compound 77, 2-(3,4-dichlorophenyl)-1-ethyl-6-[(4-fluoroimidazol-1-yl)methyl]-4-oxo-pyridine-3-carboxylic acid] | 1 (1=0-20%) | 1 (1=0-20%) | 1 (1=0-20%) | 0 | 1 (1=0-20%) | 0 |  |  |  |  |  | 
10 | CCn1c(Cn2nc(C(F)F)c3c2CCOC3)cc(=O)c(C(=O)O)c1-c1ccc(Cl)c(Cl)c1 [Compound 87, 2-(3,4-dichlorophenyl)-6-[[3-(difluoromethyl)-6,7-dihydro-4H-pyrano[4,3-c]pyrazol-1-yl]methyl]-1-ethyl-4-oxo-pyridine-3-carboxylic acid] | 2 (2=21-40%) | 1 (1=0-20%) | 1 (1=0-20%) | 1 (1=0-20%) | 1 (1=0-20%) | 1 (1=0-20%) | 0 | 0 | 1 (1=0-20%) | 0 | 1 (1=0-20%) | 0
11 | CCn1c(Cn2cc(S(C)(=O)=O)cn2)cc(=O)c(C(=O)O)c1-c1ccc(Cl)c(Cl)c1 [Compound 90, 2-(3,4-dichlorophenyl)-1-ethyl-6-[(4-methylsulfonylpyrazol-1-yl)methyl]-4-oxo-pyridine-3-carboxylic acid] | 1 (1=0-20%) | 1 (1=0-20%) | 1 (1=0-20%) | 0 | 0 | 0 |  |  |  |  |  | 
